Results from article PMC9516332 (Frontiers in Oncology, 2022).
Read-outs that look alike come from different tables or passages of the source.

Key:
[1] = molecular target: panel of 255 wild-type kinases (Homo sapiens, UniProt P08581); experiment: Kinase panel profiling at 1 µmol/L (MSA or IMAP), percentage inhibition; type: biochemical; details: MET; 1 µmol/L single concentration
[2] = molecular target: panel of 255 wild-type kinases (Homo sapiens, UniProt P31749); experiment: as above; type: biochemical; details: AKT1 kinase assay; 1 µmol/L single concentration; read-out: %-inhibition AKT1
[3] = molecular target: T1, panel of 255 wild-type kinases (Homo sapiens, UniProt Q96PF2); experiment: as above; type: biochemical; details: kinase TSSK2; 1 µmol/L single concentration; read-out: %-inhibition at 1 µmol/L, TSSK2
T1 sequence (Q96PF2 1-358): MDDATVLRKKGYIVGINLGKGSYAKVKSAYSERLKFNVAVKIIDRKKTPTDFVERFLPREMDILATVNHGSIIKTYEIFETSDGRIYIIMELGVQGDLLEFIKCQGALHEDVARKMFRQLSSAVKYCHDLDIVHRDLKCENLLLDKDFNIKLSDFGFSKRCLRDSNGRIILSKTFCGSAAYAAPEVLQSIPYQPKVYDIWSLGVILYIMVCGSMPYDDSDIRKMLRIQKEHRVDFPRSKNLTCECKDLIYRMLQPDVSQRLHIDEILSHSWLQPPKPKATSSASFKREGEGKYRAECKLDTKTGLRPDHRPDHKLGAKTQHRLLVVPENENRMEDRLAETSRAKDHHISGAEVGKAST

[4] = molecular target: panel of 255 wild-type kinases (Homo sapiens, UniProt Q9Y463); experiment: as above; type: biochemical; details: kinase DYRK1B; 1 µmol/L single concentration; read-out: %-inhibition at 1 µmol/L, DYRK1B
134 cancer cell lines [5] = system: 134 cancer cell lines
AP-1060 (ETV6-NTRK3) = experiment: Cell viability assay; details: read-out: IC50 in cell proliferation assay
134 cancer cell lines [6] = experiment: Cell viability assay (ATPlite, 72 hours), IC50 on cancer cell line panel

inhibition at 1 µM [1]: 1.63%
inhibition at 1 µM [2]: -6%
inhibition at 1 µM [3]: -1.37%
inhibition at 1 µM [4]: -0.692%
IC50 (134 cancer cell lines [5]): 4.24 µM
IC50 (134 cancer cell lines [6]; HEC-6, read-out: IC50 in cell proliferation assay, HEC-6 cell line (EGFR p.A289V)): > 31.6 µM
IC50 (134 cancer cell lines [6]; Homo sapiens, 769-P, read-out: IC50 in cell proliferation assay, cell line 769-P): 31.1 µM
IC50 (134 cancer cell lines [6]; Homo sapiens, 786-0, read-out: IC50 in cell proliferation assay, cell line 786-O): 14.2 µM
IC50 (134 cancer cell lines [6]; Homo sapiens, A 172, read-out: IC50 in cell proliferation assay, cell line A-172): > 31.6 µM
IC50 (134 cancer cell lines [6]; Homo sapiens, A204, read-out: IC50 in cell proliferation assay, cell line A-204): 1.19 µM
IC50 (134 cancer cell lines [6]; Homo sapiens, A498, read-out: IC50 in cell proliferation assay, cell line A-498): 3.39 µM
IC50 (134 cancer cell lines [6]; Homo sapiens, A549, read-out: IC50 in cell proliferation assay, cell line A-549): 23.9 µM
IC50 (134 cancer cell lines [6]; Homo sapiens, A704, read-out: IC50 in cell proliferation assay, cell line A-704): > 31.6 µM
IC50 (134 cancer cell lines [6]; Homo sapiens, A-375, read-out: IC50 in cell proliferation assay, cell line A-375 (BRAF p.V600E)): 23.4 µM
IC50 (134 cancer cell lines [6]; Homo sapiens, A-427, read-out: IC50 in cell proliferation assay, cell line A-427): 14.9 µM
IC50 (134 cancer cell lines [6]; Homo sapiens, ACHN, read-out: IC50 in cell proliferation assay, cell line ACHN): 7.17 µM
IC50 (134 cancer cell lines [6]; Homo sapiens, AN3-CA, read-out: IC50 in cell proliferation assay, cell line AN3-CA (FGFR2 p.N549K)): 4.2 µM
IC50 (134 cancer cell lines [6]; Homo sapiens, ASPC1, read-out: IC50 in cell proliferation assay, cell line AsPC-1): > 31.6 µM
IC50 (134 cancer cell lines [6]; Homo sapiens, AU565, read-out: IC50 in cell proliferation assay, cell line AU565 (ERBB2 amplification)): 7.67 µM
IC50 (134 cancer cell lines [6]; Homo sapiens, BT-20, read-out: IC50 in cell proliferation assay, cell line BT-20): 30 µM
IC50 (134 cancer cell lines [6]; Homo sapiens, BT-474, read-out: IC50 in cell proliferation assay, cell line BT-474 (ERBB2 amplification)): 9.09 µM
IC50 (134 cancer cell lines [6]; Homo sapiens, BT-549, read-out: IC50 in cell proliferation assay, cell line BT-549): 0.348 µM
IC50 (134 cancer cell lines [6]; Homo sapiens, BXPC-3, read-out: IC50 in cell proliferation assay, cell line BxPC-3): 16.6 µM
IC50 (134 cancer cell lines [6]; Homo sapiens, C-33-A, read-out: IC50 in cell proliferation assay, cell line C-33 A): 9.87 µM
IC50 (134 cancer cell lines [6]; Homo sapiens, CAL-27, read-out: IC50 in cell proliferation assay, cell line CAL-27): 8.89 µM
IC50 (134 cancer cell lines [6]; Homo sapiens, CCF-STTG1, read-out: IC50 in cell proliferation assay, cell line CCF-STTG1): > 31.6 µM
IC50 (134 cancer cell lines [6]; Homo sapiens, CCRF-CEM, read-out: IC50 in cell proliferation assay, cell line CCRF-CEM): 0.916 µM
IC50 (134 cancer cell lines [6]; Homo sapiens, COLO 205, read-out: IC50 in cell proliferation assay, cell line COLO 205 (BRAF p.V600E)): 20.5 µM
IC50 (134 cancer cell lines [6]; Homo sapiens, COLO-829, read-out: IC50 in cell proliferation assay, cell line COLO 829 (BRAF p.V600E)): > 31.6 µM
IC50 (134 cancer cell lines [6]; Homo sapiens, DLD-1, read-out: IC50 in cell proliferation assay, cell line DLD-1): 18.5 µM
IC50 (134 cancer cell lines [6]; Homo sapiens, DU-4475, read-out: IC50 in cell proliferation assay, cell line DU4475 (BRAF p.V600E)): > 31.6 µM
IC50 (134 cancer cell lines [6]; Homo sapiens, Daoy, read-out: IC50 in cell proliferation assay, cell line Daoy): 12.1 µM
IC50 (134 cancer cell lines [6]; Homo sapiens, DoTc2-4510, read-out: IC50 in cell proliferation assay, cell line DoTc2 4510): 8.98 µM
IC50 (134 cancer cell lines [6]; Homo sapiens, EOL1, read-out: IC50 in cell proliferation assay, cell line EoL-1 (FIP1L1-PDGFRA)): 0.033 µM
IC50 (134 cancer cell lines [6]; Homo sapiens, FaDu, read-out: IC50 in cell proliferation assay, cell line FaDu): 18.7 µM
IC50 (134 cancer cell lines [6]; Homo sapiens, G-361, read-out: IC50 in cell proliferation assay, cell line G-361 (BRAF p.V600E)): 22.1 µM
IC50 (134 cancer cell lines [6]; Homo sapiens, HCC827, read-out: IC50 in cell proliferation assay, cell line HCC827 (EGFR exon19del)): 2.18 µM
IC50 (134 cancer cell lines [6]; Homo sapiens, HCC4006, read-out: IC50 in cell proliferation assay, cell line HCC4006 (EGFR exon19del)): 26 µM
IC50 (134 cancer cell lines [6]; Homo sapiens, HCT-15, read-out: IC50 in cell proliferation assay, cell line HCT 15): > 31.6 µM
IC50 (134 cancer cell lines [6]; Homo sapiens, HCT-116, read-out: IC50 in cell proliferation assay, cell line HCT 116): 27.6 µM
IC50 (134 cancer cell lines [6]; Homo sapiens, HEC-1, read-out: IC50 in cell proliferation assay, HEC-1 cell line): 11.2 µM
IC50 (134 cancer cell lines [6]; Homo sapiens, HEC-1B, read-out: IC50 in cell proliferation assay, HEC-1-B cell line (EGFR p.A864V)): 4.51 µM
IC50 (134 cancer cell lines [6]; Homo sapiens, HL-60, read-out: IC50 in cell proliferation assay, HL-60 cell line): 4.97 µM
IC50 (134 cancer cell lines [6]; Homo sapiens, HT, read-out: IC50 in cell proliferation assay, HT cell line): 4.63 µM
IC50 (134 cancer cell lines [6]; Homo sapiens, HT-1080, read-out: IC50 in cell proliferation assay, HT-1080 cell line): 3.97 µM
IC50 (134 cancer cell lines [6]; Homo sapiens, Hs746T, read-out: IC50 in cell proliferation assay, Hs 746.T cell line (MET exon14skip + amplification)): 4.43 µM
IC50 (134 cancer cell lines [6]; Homo sapiens, Hs-578T, read-out: IC50 in cell proliferation assay, Hs 578T cell line): 2.62 µM
IC50 (134 cancer cell lines [6]; Homo sapiens, HuTu80, read-out: IC50 in cell proliferation assay, HuTu 80 cell line): 15 µM
IC50 (134 cancer cell lines [6]; Homo sapiens, J82, read-out: IC50 in cell proliferation assay, J82 cell line): 23.8 µM
IC50 (134 cancer cell lines [6]; Homo sapiens, Jurkat E6.1, read-out: IC50 in cell proliferation assay, Jurkat E6.1 cell line): 6.94 µM
IC50 (134 cancer cell lines [6]; Homo sapiens, K562, read-out: IC50 in cell proliferation assay, K-562 cell line): 12.3 µM
IC50 (134 cancer cell lines [6]; Homo sapiens, KATO III, read-out: IC50 in cell proliferation assay, KATO III cell line (FGFR2 amplification)): 23.1 µM
IC50 (134 cancer cell lines [6]; Homo sapiens, KG-1, read-out: IC50 in cell proliferation assay, KG-1 cell line (FGFR1OP2-FGFR1)): > 31.6 µM
IC50 (134 cancer cell lines [6]; Homo sapiens, KLE, read-out: IC50 in cell proliferation assay, KLE cell line): 4.37 µM
IC50 (134 cancer cell lines [6]; Homo sapiens, KMS-11, read-out: IC50 in cell proliferation assay, KMS-11 cell line (FGFR3 p.Y373C)): 11.4 µM
IC50 (134 cancer cell lines [6]; Homo sapiens, KU812, read-out: IC50 in cell proliferation assay, Ku812 cell line): 12.8 µM
IC50 (134 cancer cell lines [6]; Homo sapiens, Kasumi 1, read-out: IC50 in cell proliferation assay, Kasumi-1 cell line (KIT p.N822K)): 5.79 µM
IC50 (134 cancer cell lines [6]; Homo sapiens, LC-2-ad, read-out: IC50 in cell proliferation assay, LC-2/ad cell line (CCDC6-RET)): 0.095 µM
IC50 (134 cancer cell lines [6]; Homo sapiens, LNCaP-Clone-FGC, read-out: IC50 in cell proliferation assay, LNCaP clone FGC cell line): 0.119 µM
IC50 (134 cancer cell lines [6]; Homo sapiens, LS174T, read-out: IC50 in cell proliferation assay, LS174T cell line): 31.2 µM
IC50 (134 cancer cell lines [6]; Homo sapiens, LS-411N, read-out: IC50 in cell proliferation assay, LS411N cell line (BRAF p.V600E)): 26.3 µM
IC50 (134 cancer cell lines [6]; Homo sapiens, LoVo, read-out: IC50 in cell proliferation assay, LoVo cell line): 9.26 µM
IC50 (134 cancer cell lines [6]; Homo sapiens, MCF7, read-out: IC50 in cell proliferation assay, MCF-7 cell line): 11.8 µM
IC50 (134 cancer cell lines [6]; Homo sapiens, MDA-MB-231, read-out: IC50 in cell proliferation assay, MDA-MB-231 cell line): > 31.6 µM
IC50 (134 cancer cell lines [6]; Homo sapiens, MDA-MB-453, read-out: IC50 in cell proliferation assay, MDA-MB-453 cell line): > 31.6 µM
IC50 (134 cancer cell lines [6]; Homo sapiens, MDA-MB-468, read-out: IC50 in cell proliferation assay, MDA-MB-468 cell line): 1.3 µM
IC50 (134 cancer cell lines [6]; Homo sapiens, MG-63, read-out: IC50 in cell proliferation assay, MG-63 cell line): 7.8 µM
IC50 (134 cancer cell lines [6]; Homo sapiens, MIA PaCa-2, read-out: IC50 in cell proliferation assay, MIA PaCa-2 cell line): 12.9 µM
SMILES: C[C@H](Nc1ncnc2nc[nH]c12)c1cc2cccc(Cl)c2c(=O)n1-c1ccccc1 [duvelisib]
IC50 (AP-1060 (ETV6-NTRK3)): 11.3 µM
